Data: patent US20220296566A1, “COMBINATION PRODUCT CONTAINING LIMONOID COMPOUND AND ALPHA-GLUCOSIDASE INHIBITOR” (ZHEJIANG YANGSHENGTANG INSTITUTE OF NATURAL MEDICATION CO., …, priority 2019, published 2022)

Experiments:
Assay type in all cases: in vivo
db/db mice [1] = assay: Blood glucose in mouse type II diabetes model, db/db mice (Example 4); conditions: single agent 0.2 g/kg per day by gavage, two weeks, 1 h after last administration, mean ± SD
Excerpt: (§1) Effects of limonoid compound, acarbose or combination thereof on blood glucose and insulin in mouse type II diabetes model
(§2) In the present embodiment, the limonoid compound was selected from nomilin, deacetylnomilin, nomilin acid, deacetylnomilin acid glycoside, and acarbose single administration group, nomilin single administration group, deacetylnomilin single administration group, nomilin acid single administered group, deacetylnomilin acid glycoside single administration group, and respective combination thereof with acarbose administration groups were set.
Conditions for experimental feeding: as type II diabetes model mice, 6-week-old SPF-grade db/db mice were purchased from the Nanjing Model Biology Institute, and subjected to experimental feeding after 7 days of preliminary feeding. […]
Gavage doses: nomilin at a dose of 0.2 g/kg was gavaged per day for the nomilin group, deacetylnomilin at a dose of 0.2 g/kg was gavaged per day for the deacetylnomilin group, nomilin acid at a dose of 0.2 g/kg was gavaged per day for the nomilin acid group, deacetylnomilin acid glycoside at a dose of 0.2 g/kg was gavaged per day for the deacetylnomilin acid glycoside group, acarbose at a dose of 0.2 g/kg was gavaged per day for the acarbose group, nomilin at a dose of 0.1 g/kg and acarbose at a dose of 0.1 g/kg were simultaneously gavaged per day for the nomilin combination group, nomilin acid at a dose of 0.1 g/kg and acarbose at a dose of 0.1 g/kg were simultaneously gavaged per day for the nomilin acid combination group, deacetylnomilin at a dose of 0.1 g/kg and acarbose at a dose of 0.1 g/kg were simultaneously gavaged per day for the deacetylnomilin combination group, deacetylnomilin acid glycoside at a dose of 0.1 g/kg and acarbose at a dose of 0.1 g/kg were simultaneously gavaged per day for the deacetylnomilin acid glycoside combination group, the gavage volume was 10 mL/kg, and the normal group and the model group were administrated with 10 mL/kg of distilled water. […] The data were expressed as mean and standard deviation. […]

STZ mice = assay: Blood glucose in mouse type II diabetes model with pancreatic islet damage and obesity, STZ plus high-fat diet (Example 5); conditions: STZ + high-fat diet ICR mice; single agent 0.5 g/kg per day by gavage, two weeks; 1 h after last administration; mean ± SD
Excerpt: Effects of limonoid compound, acarbose or combination thereof on blood glucose in mouse type II diabetes model with pancreatic islet damage and obesity
In this example, a mouse model of type II diabetes with pancreatic islet damage and obesity was established by multiple modeling ICR mice with a small dose of streptozotocin (STZ), following with continuous high-fat diets (referring to literature: Zhang Jiyuan et al, Study on the effect of three plant extracts on improving glucose and lipid metabolism in type 2 diabetic mice, Food and Machinery, 2016, 32 (12): 142-147). […]
Experimental grouping: 15 male mice were randomly selected as the normal control group, and the remaining mice were subjected to a high-fat diet (high-fat diet formula: cholesterol 1%, egg yolk powder 10%, lard oil 10%, and basic feed 79%, for establishing an obesity mouse model) for consecutive 4 weeks and intraperitoneal injection of STZ at a dose of 35mg/kg for three consecutive days. After one week, the mice were subject to 24 hours of fasting and water deprivation, their fasting blood glucose was measured, and the mice with a blood glucose level of 15 to 25 mmol/L were selected and undifferentiatedly grouped and used in the experiment, continuously subjected to the high-fat diet, 15 mice in each group, and subjected to blood sampling and detection of indicators after 2 weeks of administration. […]

db/db mice [2] = assay: Blood glucose in mouse type II diabetes model, db/db mice (Example 2); conditions: single agent 0.04 g/kg per day by gavage, two weeks, 1 h after last administration, mean ± SD
Excerpt: (§3) Effects of limonoid compound, acarbose or combination thereof on blood glucose and leptin in mouse type II diabetes model
(§4) In the present example, db/db mice (line name BKS.Cg-Dock7^m+/+Lepr^db/Nju) were used to perform hypoglycemic efficacy evaluation test of animals (blood glucose level and leptin). The limonoid compound was selected from obacunone, isoobacunoic acid and obacunone glycoside, and acarbose single administration group, obacunone single administration group, isoobacunoic acid single administration group, obacunone glycoside single administered group, and respective combination thereof with acarbose administration groups were set.
(§5) Conditions for experimental feeding: as type II diabetes model mice, 6-week-old SPF-grade db/db mice were purchased from the Nanjing Model Biology Institute, and subjected to experimental feeding after 7 days of preliminary feeding. It should be noted that the conditions for raising the mice were as follows: the temperature was 23±1° C., the humidity was 55±10%, the lights were turned on between 7 am and 7 pm (the lights were turned off at other time), and the mice were allowed to freely take in water and feed. […]

db/db mice [3] = assay: Serum leptin by Elisa in db/db mice (Example 2); conditions: single agent 0.04 g/kg per day by gavage, two weeks, mean ± SD
Excerpt: as §3, §4, §5

db/db mice [4] = assay: Serum insulin by Elisa in db/db mice (Example 4); conditions: single agent 0.2 g/kg per day by gavage, two weeks, mean ± SD
Excerpt: as §1, §2
as §5, with “feed. The experimental feed was mouse growth-stable feed (GB M2118), and the daily feeding and management of the animals were under the responsibility of the animal security department, which provided the animals with sufficient diet and fresh drinking water daily.” for “feed.”

CC1(C)OC(=O)C[C@H](O)[C@]2(C)[C@H]3CC[C@@]4(C)[C@H](c5ccoc5)OC(=O)[C@H]5O[C@]54[C@]3(C)C(=O)C[C@@H]12 [Deacetylnomilin, deacetylnomilin]
Blood glucose value (db/db mice [1]): 11.9 ± 2.9 mmol/L

CC(=O)O[C@@H]1CC(=O)OC(C)(C)[C@@H]2CC(=O)[C@]3(C)[C@H](CC[C@@](C)(C(O[C@@H]4O[C@H](CO)[C@@H](O)[C@H](O)[C@H]4O)c4ccoc4)C34OC4C(=O)O)[C@@]12C (stereo partly drawn) [Nomilin glycoside, nomilin glycoside]
Blood glucose value (STZ mice): 12.8 ± 2.9 mmol/L

CC(=O)O[C@H]1CC(=O)OC(C)(C)[C@@H]2CC(=O)[C@]3(C)[C@H](CC[C@@]4(C)[C@H](c5ccoc5)OC(=O)[C@H]5O[C@]543)[C@@]12C [Nomilin, nomilin]
Blood glucose value (db/db mice [1]): 10.1 ± 3.9 mmol/L

CC1(C)OC(=O)C=C[C@]2(C)[C@H]3CC[C@@](C)([C@@H](O[C@@H]4O[C@H](CO)[C@@H](O)[C@H](O)[C@H]4O)c4ccoc4)[C@@]4(O[C@@H]4C(=O)O)[C@]3(C)C(=O)C[C@@H]12 [Obacunone glycoside, obacunone glycoside]
Blood glucose value (db/db mice [2]): 13.7 ± 2.9 mmol/L
Leptin (db/db mice [3]): 28.55 ± 4.00 pg/mL

nomilin acid
Insulin (db/db mice [4]): 8.08 ± 1.49 pg/mL
